# From patent US9718782B2, “TrkA kinase inhibitors, compositions and methods thereof” (MERCK SHARP & DOHME CORP, priority 2013, dated 2017)
# Target: T1, TrkA receptor (Homo sapiens, UniProt P04629)
# T1 construct: host or cells: U2OS (PathHunter, 'TrkA p75' cells)
# Assay: DiscoverX PathHunter TrkA functional assay (NGF-stimulated U2OS cells)
# Assay type: cell-based
# Details: U2OS cells expressing TrkA-Prolink fusion and Shc1-EA; compound 1 hour, then EC80 NGF 3 hours; luminescence
# Procedure: TrkA functional activity was measured using a DiscoverX PathHunter assay. In this assay, U2OS cells are express TrkA receptor as a fusion with the weakly complementing fragment of B-galactosidase, which DiscoverX calls “Prolink (PK)”; additionally, Shcl is fused with a larger fragment, which is called “Enzyme Acceptor (EA)”. Activation of the TrkA receptor, upon NGF addition, results in the kinase domain being phosphorylated, resulting in subsequent recruitment of Shcl-EA protein. That recruitment results in an active B-galactosidase enzyme that is detected by addition of a chemiluminescent substrate.
# All reagents were purchased from DiscoverX, except for the receptor agonists (NGF, BDNF, NT3) which were purchased from Peprotech. Cells were expanded and frozen into cryovials (TrkA p75 @passage 13, 1.5×10^7 cells/vial; TrkC p75 @passage 11, 1.5×10^7 cells/vial in InVitrogen Recovery Cell Freezing media), and stored in the vapor phase of liquid nitrogen, and thawed immediately before use. Thawed cells were added to a 384-well plate (BD Falcon 384-well white/clear, TC surface 120 uL assay plates (353963), 20 uL of 0.375e6 cells/mL=>7500 cells/well), and allowed to incubate overnight. Compound (10 mM starting dose: 202.5 nL compound yielding 0.81% DMSO final in total assay volume and starting doses 81 uM) was added the following morning and allowed to incubate on cells for 1 hour. Then, 5 uL EC80 of agonist (NGF for TrkA; BDNF for TrkB; NT3 for TrkC) was added and allowed to incubate for 3 hours at room temperature. DiscoverX PathHunter detection reagent is added (12 uL to plate and components diluted in parts as per kit instructions) and the plate is further incubated for 1 hour in the dark. The plate is read via luminescence on the Perkin Elmer Envision.
# T1 sequence (P04629 33-796): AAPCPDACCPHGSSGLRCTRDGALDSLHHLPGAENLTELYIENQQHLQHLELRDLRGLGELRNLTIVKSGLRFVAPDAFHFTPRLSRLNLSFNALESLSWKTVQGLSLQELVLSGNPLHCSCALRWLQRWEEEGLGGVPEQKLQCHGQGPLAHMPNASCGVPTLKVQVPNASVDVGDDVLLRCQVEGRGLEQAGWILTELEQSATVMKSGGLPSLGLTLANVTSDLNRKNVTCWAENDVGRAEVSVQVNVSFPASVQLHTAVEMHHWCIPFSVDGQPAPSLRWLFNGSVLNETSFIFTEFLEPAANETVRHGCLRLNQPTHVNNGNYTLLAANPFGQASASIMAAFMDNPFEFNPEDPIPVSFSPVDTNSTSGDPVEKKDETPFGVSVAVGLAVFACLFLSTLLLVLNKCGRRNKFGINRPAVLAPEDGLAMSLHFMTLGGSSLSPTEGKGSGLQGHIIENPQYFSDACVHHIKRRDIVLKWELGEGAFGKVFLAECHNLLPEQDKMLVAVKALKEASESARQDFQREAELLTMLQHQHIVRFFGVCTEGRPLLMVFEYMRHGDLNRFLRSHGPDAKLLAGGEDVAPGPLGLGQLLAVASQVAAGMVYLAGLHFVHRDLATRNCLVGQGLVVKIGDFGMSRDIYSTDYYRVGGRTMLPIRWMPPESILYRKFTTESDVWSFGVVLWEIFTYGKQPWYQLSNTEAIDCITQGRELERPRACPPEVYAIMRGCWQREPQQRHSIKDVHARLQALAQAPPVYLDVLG
row,Structure (SMILES),IC50 [nM]
1,"Cc1ccc(NC(=O)NC2c3ccccc3-c3ccccc32)c(-c2ccccc2)n1 [Compound 1, 1-(9H-fluoren-9-yl)-3-(6-methyl-2-phenylpyridin-3-yl)urea]",69
2,"Cc1ncc(NC(=O)NC2c3ccccc3-c3ccccc32)c(-c2ccccc2)n1 [Compound 4, 1-(9H-fluoren-9-yl)-3-(2-methyl-4-phenylpyrimidin-5-yl)urea]",82
3,"Cc1ccc(NC(=O)NC2c3ccccc3-c3ccccc32)c(-c2ccc(F)cc2)n1 [Compound 5, 1-(9H-fluoren-9-yl)-3-[2-(4-fluorophenyl)-6-methylpyridin-3-yl]urea]",230
4,"Cc1cc(NC(=O)NC2c3ccccc3-c3ccccc32)n(-c2ccccc2)n1 [Compound 7, 1-(9H-fluoren-9-yl)-3-(3-methyl-1-phenyl-1H-pyrazol-5-yl)urea]",44
5,"Cc1onc(-c2ccccc2)c1NC(=O)NC1c2ccccc2-c2ccccc21 [Compound 8, 1-(9H-fluoren-9-yl)-3-(5-methyl-3-phenylisoxazol-4-yl)urea]",190
6,"Cc1nn(C)c(NC(=O)NC2c3ccccc3-c3ccccc32)c1-c1ccccc1 [Compound 10, 1-(1,3-dimethyl-4-phenyl-1H-pyrazol-5-yl)-3-(9H-fluoren-9-yl)urea]",210
7,"O=C(Nc1cccnc1-c1ccccc1)NC1c2ccccc2-c2ccccc21 [Compound 11, 1-(9H-fluoren-9-yl)-3-(2-phenylpyridin-3-yl)urea]",27
8,"O=C(Nc1cnccc1-c1ccccc1)NC1c2ccccc2-c2ccccc21 [Compound 12, 1-(9H-fluoren-9-yl)-3-(4-phenylpyridin-3-yl)urea]",280
9,"Cc1ccc(NC(=O)NC2c3ccccc3-c3ccccc32)cn1 [Compound 13, 1-(9H-fluoren-9-yl)-3-(6-methylpyridin-3-yl)urea]",2500
10,"O=C(Nc1ccnn1-c1ccccc1)NC1c2ccccc2-c2ccccc21 [Compound 14, 1-(9H-fluoren-9-yl)-3-(1-phenyl-1H-pyrazol-5-yl)urea]",120
11,"O=C(Nc1cc(-c2ccccc2)nn1-c1ccccc1)NC1c2ccccc2-c2ccccc21 [Compound 15, 1-(1,3-diphenyl-1H-pyrazol-5-yl)-3-(9H-fluoren-9-yl)urea]",3000
12,"CC(C)(C)c1cc(NC(=O)NC2c3ccccc3-c3ccccc32)n(-c2ccccc2)n1 [Compound 16, 1-(3-tert-butyl-1-phenyl-1H-pyrazol-5-yl)-3-(9H-fluoren-9-yl)urea]",69
13,"Cc1ccccc1-n1nc(C(C)(C)C)cc1NC(=O)NC1c2ccccc2-c2ccccc21 [Compound 18, 1-[3-tert-butyl-1-(2-methylphenyl)-1H-pyrazol-5-yl]-3-(9H-fluoren-9-yl)urea]",850
14,"CC(C)(C)c1cc(NC(=O)NC2c3ccccc3-c3ccccc32)n(-c2ccc(F)cc2)n1 [Compound 20, 1-[3-tert-butyl-1-(4-fluorophenyl)-1H-pyrazol-5-yl]-3-(9H-fluoren-9-yl)urea]",190
15,"O=C(Nc1c(-c2ccccc2)nc2ccccn12)NC1c2ccccc2-c2ccccc21 [Compound 21, 1-(9H-fluoren-9-yl)-3-(2-phenylimidazo [1,2-a]pyridin-3-yl)urea]",28
16,"Cn1cnc(-c2ccccc2)c1NC(=O)NC1c2ccccc2-c2ccccc21 [Compound 22, 1-(9H-fluoren-9-yl)-3-(1-methyl-4-phenyl-1H-imidazol-5-yl)urea]",310
17,"O=C(Nc1c2cnc3ccccc3c2nn1-c1ccccc1)NC1c2ccccc2-c2ccccc21 [Compound 25, 1-(9H-fluoren-9-yl)-3-(2-phenyl-2H-pyrazolo[4,3-c]quinolin-3-yl)urea]",1400
18,"Cc1ccc(NC(=O)NC2c3ccccc3-c3ccccc32)c(F)n1 [Compound 27, 1-(9H-fluoren-9-yl)-3-(2-fluoro-6-methylpyridin-3-yl)urea]",3200
19,"Cc1ncc(NC(=O)NC2c3ccccc3-c3ccccc32)c(-c2ccc(F)cc2)n1 [Compound 28, 1-(9H-fluoren-9-yl)-3-[4-(4-fluorophenyl)-2-methylpyrimidin-5-yl]urea]",150
20,"Cc1cc(-c2ccc(F)cc2)c(NC(=O)NC2c3ccccc3-c3ccccc32)cn1 [Compound 29, 1-(9H-fluoren-9-yl)-3-[4-(4-fluorophenyl)-6-methylpyridin-3-yl]urea]",480
21,"O=C(Nc1ccccc1-c1ccccc1)NC1c2ccccc2-c2ccccc21 [Compound 31, 1-biphenyl-2-yl-3-(9H-fluoren-9-yl)urea]",960
22,"Cn1nnc(-c2cccc(NC(=O)NC3c4ccccc4-c4ccccc43)c2)n1 [Compound 32, 1-(9H-fluoren-9-yl)-3-[3-(2-methyl-2H-tetrazol-5-yl)phenyl]urea]",1200
23,"O=C(Nc1ccccc1N1CCOCC1)NC1c2ccccc2-c2ccccc21 [Compound 35, 1-(9H-fluoren-9-yl)-3-(2-morpholin-4-ylphenyl)urea]",4000
24,"Cc1nccn1-c1cccc(NC(=O)NC2c3ccccc3-c3ccccc32)c1 [Compound 38, 1-(9H-fluoren-9-yl)-3-[3-(2-methyl-1H-imidazol-1-yl)phenyl]urea]",3000
25,"Cn1cnnc1-c1cccc(NC(=O)NC2c3ccccc3-c3ccccc32)c1 [Compound 42, 1-(9H-fluoren-9-yl)-3-[3-(4-methyl-4H-1,2,4-triazol-3-yl)phenyl]urea]",110

# Further compounds by falling IC50, results first:
row,IC50 [nM],Structure (SMILES)
1,3000,"CN1CCN(Cc2ccccc2NC(=O)NC2c3ccccc3-c3ccccc32)CC1 [Compound 36, 1-(9H-fluoren-9-yl)-3-{2-[(4-methylpiperazin-1-yl)methyl]phenyl}urea]"
2,3000,"Cc1cc(NC(=O)NC2c3ccccc3-c3ccccc32)n(-c2ccccn2)n1 [Compound 39, 1-(9H-fluoren-9-yl)-3-(3-methyl-1-pyridin-2-yl-1H-pyrazol-5-yl)urea]"
3,2300,"Cc1nnc(-c2cccc(NC(=O)NC3c4ccccc4-c4ccccc43)c2)[nH]1 [Compound 37, 1-(9H-fluoren-9-yl)-3-[3-(5-methyl-4H-1,2,4-triazol-3-yl)phenyl]urea]"
4,1700,"Cc1nnnn1-c1cccc(NC(=O)NC2c3ccccc3-c3ccccc32)c1 [Compound 33, 1-(9H-fluoren-9-yl)-3-[3-(5-methyl-1H-tetrazol-1-yl)phenyl]urea]"
5,1100,"O=C(Nc1cccc(-n2cnnc2)c1)NC1c2ccccc2-c2ccccc21 [Compound 34, 1-(9H-fluoren-9-yl)-3-[3-(4H-1,2,4-triazol-4-yl)phenyl]urea]"
6,550,"COc1ccc(-c2cc(NC(=O)NC3c4ccccc4-c4ccccc43)n(-c3ccccc3)n2)cc1 [Compound 24, 1-(9H-fluoren-9-yl)-3-[3-(4-methoxyphenyl)-1-phenyl-1H-pyrazol-5-yl]urea]"
7,530,"Cn1ncc(-c2ccccc2)c1NC(=O)NC1c2ccccc2-c2ccccc21 [Compound 9, 1-(9H-fluoren-9-yl)-3-(1-methyl-4-phenyl-1H-pyrazol-5-yl)urea]"
8,520,"CNc1ncccc1NC(=O)NC1c2ccccc2-c2ccccc21 [Compound 26, 1-(9H-fluoren-9-yl)-3-[2-(methylamino)pyridin-3-yl]urea]"
9,330,"Cc1nn(-c2ccc(F)cc2)c(NC(=O)NC2c3ccccc3-c3ccccc32)c1C#N [Compound 23, 1-[4-cyano-1-(4-fluorophenyl)-3-methyl-1H-pyrazol-5-yl]-3-(9H-fluoren-9-yl)urea]"
10,200,"CC(C)Cc1cc(NC(=O)NC2c3ccccc3-c3ccccc32)n(-c2ccccc2)n1 [Compound 17, 1-(9H-fluoren-9-yl)-3-[3-(2-methylpropyl)-1-phenyl-1H-pyrazol-5-yl]urea]"
11,200,"O=C(Nc1cccnc1C1CCCCC1)NC1c2ccccc2-c2ccccc21 [Compound 40, 1-(2-cyclohexylpyridin-3-yl)-3-(9H-fluoren-9-yl)urea]"
12,170,"O=C(Nc1cncnc1-c1ccccc1)NC1c2ccccc2-c2ccccc21 [Compound 30, 1-(9H-fluoren-9-yl)-3-(4-phenylpyrimidin-5-yl)urea]"
13,140,"Cc1nc(-c2ccccc2)c(NC(=O)NC2c3ccccc3-c3ccccc32)s1 [Compound 2, 1-(9H-fluoren-9-yl)-3-(2-methyl-4-phenyl-1,3-thiazol-5-yl)urea]"
14,83,"Cc1cc(NC(=O)NC2c3ccccc3-c3ccccc32)n(-c2ccc(F)cc2)n1 [Compound 41, 1-(9H-fluoren-9-yl)-3-[1-(4-fluorophenyl)-3-methyl-1H-pyrazol-5-yl]urea]"
15,69,"O=C(Nc1cc(C2CC2)nn1-c1ccccc1)NC1c2ccccc2-c2ccccc21 [Compound 19, 1-(3-cyclopropyl-1-phenyl-1H-pyrazol-5-yl)-3-(9H-fluoren-9-yl)urea]"
16,61,"Cc1ncc(NC(=O)NC2c3ccccc3Oc3ccccc32)c(-c2ccccc2)n1 [Compound 3, 1-(2-methyl-4-phenylpyrimidin-5-yl)-3-(9H-xanthen-9-yl)urea]"
17,35,"O=C(Nc1c(-c2ccccc2)nc2sccn12)NC1c2ccccc2-c2ccccc21 [Compound 6, 1-(9H-fluoren-9-yl)-3-(6-phenylimidazo [2,1-b][1,3]thiazol-5-yl)urea]"
